Measured values from patent CN113979875A, “一种地佐辛衍生物晶型a及其制备方法和应用” (Yangtze River Pharmaceutical Group Co Ltd, priority 2020, dated 2022).

How the values were obtained:
[1] = target: μ opioid receptor (μ阿片类受体) (Homo sapiens, UniProt P35372); assay: Radioligand competitive binding, μ opioid receptor (Example 12)
[2] = target: κ opioid receptor (κ阿片类受体) (Homo sapiens, UniProt P41145); assay: Radioligand competitive binding, κ opioid receptor (Example 12)
[3] = target: δ opioid receptor (δ阿片类受体) (Homo sapiens, UniProt P41143); assay: Radioligand competitive binding, δ opioid receptor (Example 12)
[4] = Stress (influencing factor) stability test, crystal form by XRPD (Example 9); type: physicochemical
[5] = Grinding test, crystal form by XRPD (Example 7); type: physicochemical; conditions: agate mortar, thorough grinding for half an hour
[6] = Intermediate and long-term storage stability (Example 10); type: physicochemical; conditions: 12 months
[7] = intermediate condition 30℃±2℃/65%±5%RH
[8] = long-term condition 25℃±2℃/60%±5%RH

Row | SMILES | IC50 [1] | IC50 [2] | IC50 [3] | crystal form ([4]; day 0 (initial)) | crystal form ([4]; high humidity, 5 days) | crystal form ([4]; high humidity, 10 days) | crystal form ([4]; high humidity, 30 days) | crystal form ([4]; high temperature and high humidity, 5 days) | crystal form ([4]; high temperature and high humidity, 10 days) | crystal form ([4]; high temperature and high humidity, 30 days) | crystal transformation (XRPD compared with initial data) ([4]; high temperature and high humidity, high humidity, and light (Figs. 9-17)) | crystal form ([4]; light, 5 days) | crystal form ([4]; light, 10 days) | crystal form ([4]; light, 30 days) | change in all quality indices ([4]; light, high temperature and high humidity, high humidity, packed in medicinal LDPE bag and polyester/aluminium/polyethylene composite film) | crystal transformation on grinding [5] | chemical stability [6, 7] | crystal form stability [6, 7] | chemical stability [6, 8] | crystal form stability [6, 8]
1 | C[C@@]12CCCCC[C@@H](Cc3ccc(O)cc31)[C@@H]2NCc1ccccc1.Cl [地佐辛衍生物晶型A, 盐酸盐] | < 10 nM | < 10 nM | < 10 nM | – | – | – | – | – | – | – | – | – | – | – | – | – | – | – | – | –
2 | C[C@@]12CCCCC[C@@H](Cc3ccc(O)cc31)[C@@H]2NCc1ccccc1.Cl [地佐辛衍生物晶型A] | – | – | – | 晶型A | 晶型A | 晶型A | 晶型A | 晶型A | 晶型A | 晶型A | 没有发生转晶现象 | 晶型A | 晶型A | 晶型A | 各项指标无明显变化,均符合质量标准要求 | 未转晶 | 很好的化学稳定性 | 很好的化学稳定性和晶型稳定性 | 很好的化学稳定性 | 很好的化学稳定性和晶型稳定性
